In the experiment the target is T1, Rat Striatal 5-HT6 Receptors (Rattus norvegicus, UniProt P31388).
T1 construct: Striatal tissue from adult rats (Sprague-Dawley, 320-370 g, B & K Sweden) were dissected out, weighed and homogenized; from tissue; host or cells: rat striatum (Sprague-Dawley) membranes
The experiment can be described thus: [125I]SB258585 binding to rat striatal 5-HT6 receptors. Particulars: competition with [125I]SB258585, rat striatal membranes. As to the method: Method for [125I]SB258585 Binding to Rat Striatal 5-HT6 Receptors
[^125I]SB258585 (1) with specific radioactivity 2000 Ci/mmol was purchased from Amersham Biosciences Europe GmbH, Freiburg, Germany. Other chemicals were purchased from commercial sources and were of analytical grade.
Striatal tissue from adult rats (Sprague-Dawley, 320-370 g, B & K Sweden) were dissected out, weighed and homogenized in buffer containing 50 mM Tris-HCl, 4 mM MgCl2, 1 mM EDTA, 10 μM pargyline and protease inhibitor (Complete, Roche Diagnostics) pH 7.4 using an Ultra-Turrax T8 (IKA Labortechnik, Germany). The tissue homogenate was centrifuged at 48 000×g for 10 min and the pellet was resuspended and recentrifuged as above. […]
Saturation binding studies were carried out in duplicate with 1-3 mg w.w. per tube in 0.5 ml buffer (50 mM Tris, 4 mM MgCl2, 100 mM NaCl, 1 mM EDTA, 5 mM ascorbate and 10 μM pargyline at pH 7.4), 0.2 nM [^125I]SB258585 and unlabelled SB258585 to give a final concentration range of 0.23-20 nM (12 conc.). Non-specific binding was determined in the presence of 10 μM methiothepin. […] The radioactivity was determined in a Packard Tri-Carb 2900TR liquid scintillation counter. Data were analyzed by non-linear regression analyses using PRISM 4.00 (GraphPad Software Inc., San Diego, Calif.). […]

T1 sequence (P31388 whole entry): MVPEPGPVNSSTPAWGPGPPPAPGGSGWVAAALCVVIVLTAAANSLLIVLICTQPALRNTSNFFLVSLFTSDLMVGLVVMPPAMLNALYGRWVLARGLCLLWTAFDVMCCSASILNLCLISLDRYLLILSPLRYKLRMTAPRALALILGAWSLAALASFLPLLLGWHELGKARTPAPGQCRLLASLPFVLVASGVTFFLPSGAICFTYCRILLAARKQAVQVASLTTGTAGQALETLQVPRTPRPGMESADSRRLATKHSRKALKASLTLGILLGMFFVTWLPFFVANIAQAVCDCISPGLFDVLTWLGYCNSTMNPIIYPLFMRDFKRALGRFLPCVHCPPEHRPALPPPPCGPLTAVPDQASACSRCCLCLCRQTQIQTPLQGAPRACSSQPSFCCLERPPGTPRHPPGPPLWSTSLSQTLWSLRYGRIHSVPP

For the compound `CN1CCOc2ccc(NS(=O)(=O)c3cccc(Cl)c3Cl)cc2C1` [Example 6, 2,3-dichloro-N-(4-methyl-2,3,4,5-tetrahydro-1,4-benzoxazepin-7-yl)benzenesulfonamide], the Ki (usually the equilibrium dissociation constant of an inhibitor or competing ligand from its target) turned out to be 31 ± 9 nM. In the case of `O=S(=O)(Nc1ccc2c(c1)CNCCC2)c1csc(C(F)(F)F)c1-c1ccccc1` [Example 39, 4-phenyl-N-(2,3,4,5-tetrahydro-1H-2-benzazepin-8-yl)-5-(trifluoromethyl)thiophene-3-sulfonamide] it was 32 ± 14 nM.

The record behind these values is US20100105657A1, “Compounds, Process for their Preparation, Intermediates, Pharmaceutical Compositions and their use in the Treatment of 5-HT6 Mediated Disorders such as Alzheimer's Disease, Cognitive Disorders, Cognitive Impairment Associated with Schizophrenia, Obesity and Parkinson's Disease” (AstraZeneca AB, priority 2005, published 2010).
